The test system of experiment [1] is recombinant Escherichia coli KO11. Put plainly: Batch fermentation of E. coli KO11 in 1% CSL medium and xylose with nutrient additives: ethanol production and cell growth. The following applies: additive 2 g/L unless indicated; for activity at 2000 µg/mL: Escherichia coli. Type of experiment: cell-based. How it is done: (§1) Two types of media were tested: 1% CSL and Luria broth (LB). Each contained 97 g of either xylose or glucose per liter. Luria Broth consists of, per liter: 10 g Difco® Tryptone, 5 g Difco® Yeast Extract and 5 g NaCl. The 1% CSL medium consists of Corn Steep Liquor (1% w/v) plus mineral salts (mineral salts per liter: 1 g of KH2PO4. 0.5 g of K2HPO4, 3.1 g of (NH4)2SO4, 0.4 g of MgCl2·6H2), and 20 mg FeCl3·6H2O).
(§2) Luria Broth was prepared by autoclaving a 2× nutrient stock containing, per liter: 20 g Difco® Tryptone, 10 g Difo® Yeast Extract, and 10 g NaCl. Sugars (xylose or glucose) were autoclaved separately. A 1% CSL medium was prepared as follows: Commercial Corn Steep Liquor (CSL; 50% dry weight/50% water) was diluted with tap water to make a 20X stock containing 100 g dry weight of Corn Steep Liquor/L and was adjusted to pH 7.2 with NaOH (50%). After sterilization by autoclaving, the 20X CSL stock was clarified by centrifugation at 5000×g for 10 minutes. Magnesium was added as a 100× stock solution (40 g/L MgCl2·6H2O). Iron was added as a 1000× stock solution made by dissolving 20 g FeCl3·6H2O in 175 mL of HCl and adjusting to 1 L with sterile water. Nitrogen, sulfur and phosphorus were added using a 20× stock solution containing the following (per liter): 20 g of KH2PO4, 10 g of K2HPO4 and 62 g of (NH4)2SO4. Stock solutions containing minerals were sterilized separately by autoclaving. Final media was prepared by adding 750 mL of water to 1 L bottle containing 100 g of xylose or glucose.
Inocula were grown in same media used for fermentation and were prepared as follows. Three colonies from a fresh plate were used to inoculate seed cultures: 250-mL flask containing 100 mL medium. These cultures were grown with agitation (120 rpm) for 12-16 hours at 35° C. to a final OD550nm of approximately 2.0-2.5. Cells were harvested by centrifugation at 5000×g for 5 minutes, and resuspended in fresh media to an OD550nm of 0.1. The resulting suspension was distributed into 500-mL beakers containing 345 ml each of fermentation medium. Acetaldehyde was added as indicated. Batch fermentations (35° C., 100 rpm) were maintained at pH 6.5 by the automatic addition of 2N KOH. Cell mass, ethanol, and base addition (2N KOH) were recorded during 96 hours of incubation. […]
(§3) Additives (e.g., as listed in Table 1) were dissolved in 5 mL di-H2O. Solutions with pH lower than 5 were neutralized to pH 6.5 with 2N KOH. Nutritional supplements were then filter-sterilized (0.45 μm filter disk) directly into the fermentation vessel containing the culture. The final concentration of all additives in the culture medium was 2 g/L unless otherwise indicated.
(§4) Cell mass was estimated by measuring OD550nm using Baush & Lomb® Spectronic 70 spectrophotometer. […] Ethanol was measured by gas chromatography using a Varian® 3400 CX gas chromatograph with 1-propanol as an internal standard.
(§5) Tables 1, 3, and 5 show time to completion of fermentation, ethanol production, and volumetric productivity of the fermentation for all concentrations of the compound and the control. Maximum ethanol production is shown in grams/liter (g/L). The ethanol yield is shown in grams of ethanol/grams of added sugar. Maximum volumetric productivity is shown in grams ethanol/(liter)(hour). The average productivity is calculated form the start of fermentation to the completion of fermentation is grams ethanol/(liter)hour).
Tables 2, 4, and 6 show the initial growth of the cells (OD taken after the first 24 hours of fermentation) and the maximum cell density (the time which culture reaches the maximum OD value). […]

For experiment [2] the test system is unchanged. Put plainly: Batch fermentation of E. coli KO11 in 1% CSL medium and glucose with nutrient additives: ethanol production and cell growth. Type of experiment: cell-based. The following applies: additive 2 g/L unless indicated; for activity at 2000 µg/mL: Escherichia coli. How it is done:
as §1, §2
Inocula were grown in same media used for fermentation and were prepared as follows. Three colonies from a fresh plate were used to inoculate seed cultures: 250-mL flask containing 100 mL medium. These cultures were grown with agitation (120 rpm) for 12-16 hours at 35° C. to a final OD550nm of approximately 2.0-2.5. Cells were harvested by centrifugation at 5000×g for 5 minutes, and resuspended in fresh media to an OD550nm of 0.1. The resulting suspension was distributed into 500-mL beakers containing 345 ml each of fermentation medium. Acetaldehyde was added as indicated. Batch fermentations (35° C., 100 rpm) were maintained at pH 6.5 by the automatic addition of 2N KOH. Cell mass, ethanol, and base addition (2N KOH) were recorded during 96 hours of incubation.
Equivalent amounts of distilled water were added instead of the acetaldehyde in control experiments.
as §3, §4, §5
Tables 2, 4, and 6 show the initial growth of the cells (OD taken after the first 24 hours of fermentation) and the maximum cell density (the time which culture reaches the maximum OD value).
Acetaldehyde was added to the fermentation medium at five different concentrations and time points. […] Where two additions are indicated, the first volume was added at the start of fermentation and the second was added after 8 hours of fermentation.

[3] abbreviates: 24 h, read-out: Initial Growth (OD @ 24 h) % Control, 1% CSL+xylose.
The mark [4] stands for this setting: read-out: Ethanol Production Maximum % Control, 1% CSL+xylose.
The mark [5] stands for this setting: read-out: Maximum Cell Density % Control, 1% CSL+xylose.
Setting [6] is: read-out: Volumetric Productivity Average % Control, 1% CSL+xylose.
Where [7] appears, read: read-out: Volumetric Productivity Maximum % Control, 1% CSL+xylose.
[8] abbreviates: 24 h, read-out: Initial Growth (OD @ 24 h) % Control, 1% CSL+glucose.
[9] abbreviates: read-out: Ethanol Production Maximum % Control, 1% CSL+glucose.
Setting [10] is: read-out: Maximum Cell Density % Control, 1% CSL+glucose.
The mark [11] stands for this setting: read-out: Volumetric Productivity Average % Control, 1% CSL+glucose.
[12] abbreviates: read-out: Volumetric Productivity Maximum % Control, 1% CSL+glucose.

Regarding `O=C(O)CC(=O)C(=O)O` [Oxaloacetate], the figures for the “Ethanol Production Maximum” value in experiment [1] (1% CSL+xylose) and in experiment [2] (1% CSL+glucose) were 23.61 g/L and 39.72 g/L, respectively. Also, the Ethanol yield is 0.243 grams of ethanol/grams of added sugar in experiment [1] (1% CSL+xylose) and 0.409 grams of ethanol/grams of added sugar in experiment [2] (1% CSL+glucose). The results for the “Initial Growth (OD @ 24 h) OD” value in experiment [1] (1% CSL+xylose) and in experiment [2] (1% CSL+glucose) were 1.65 OD and 3.29 OD, respectively. Moreover, the results for the “Maximum Cell Density OD” value in experiment [1] (1% CSL+xylose) and in experiment [2] (1% CSL+glucose) were 2.26 OD and 3.46 OD, respectively. For the same molecule, the “Maximum Cell Density Time” value in experiment [1] (1% CSL+xylose) was determined as 96 h. The “Volumetric Productivity Average” value in experiment [1] (1% CSL+xylose) was 0.246 grams ethanol/(liter)(hour); in experiment [2] (1% CSL+glucose), 0.552 grams ethanol/(liter)(hour). Also, the results for the “Volumetric Productivity Maximum” value in experiment [1] (1% CSL+xylose) and in experiment [2] (1% CSL+glucose) were 0.270 grams ethanol/(liter)(hour) and 0.712 grams ethanol/(liter)(hour), respectively. For the same molecule, the activity at 2000 µg/mL was 80.8% in experiment [1] (setting [3]); 78.5% in experiment [1] (setting [4]); 89.9% in experiment [1] (setting [5]); 78.5% in experiment [1] (setting [6]); 73.3% in experiment [1] (setting [7]); 123% in experiment [2] (setting [8]). Also, the activity at 2000 µg/mL in experiment [2] (setting [9]) came out at 107%; in experiment [2] (setting [10]) it was 129%; in experiment [2] (setting [11]), 143%; in experiment [2] (setting [12]), 138%.
In the case of `C[C@H](N)C(=O)O` [Alanine, alanine], the “Ethanol Production Maximum” value is given as 21.66 g/L in experiment [1] (1% CSL+xylose) and 34.37 g/L in experiment [2] (1% CSL+glucose). Also, the Ethanol yield in experiment [1] (1% CSL+xylose) is reported as 0.223 grams of ethanol/grams of added sugar; in experiment [2] (1% CSL+glucose), 0.354 grams of ethanol/grams of added sugar. Further, the “Initial Growth (OD @ 24 h) OD” value in experiment [1] (1% CSL+xylose) was 1.66 OD; in experiment [2] (1% CSL+glucose), 2.08 OD. For the same molecule, the “Maximum Cell Density OD” value came out at 1.73 OD in experiment [1] (1% CSL+xylose) and 2.68 OD in experiment [2] (1% CSL+glucose). In experiment [1] (1% CSL+xylose), the “Maximum Cell Density Time” value was 48 h. Also, the “Volumetric Productivity Average” value in experiment [1] (1% CSL+xylose) was 0.226 grams ethanol/(liter)(hour); in experiment [2] (1% CSL+glucose), 0.358 grams ethanol/(liter)(hour). Also, the results for the “Volumetric Productivity Maximum” value in experiment [1] (1% CSL+xylose) and in experiment [2] (1% CSL+glucose) were 0.240 grams ethanol/(liter)(hour) and 0.468 grams ethanol/(liter)(hour), respectively. The activity at 2000 µg/mL in experiment [1] (setting [3]) turned out to be 81.3%; in experiment [1] (setting [4]), 72%; in experiment [1] (setting [5]), 68.8%; in experiment [1] (setting [6]), 72%; in experiment [1] (setting [7]), 65.2%; in experiment [2] (setting [8]) it was 78%. Also, the activity at 2000 µg/mL was found to be 92.9% in experiment [2] (setting [9]), 99.8% in experiment [2] (setting [10]), 92.9% in experiment [2] (setting [11]) and 91.1% in experiment [2] (setting [12]).
Take `N[C@@H](CC(=O)O)C(=O)O` [Aspartate, aspartate]: the figures for the “Ethanol Production Maximum” value in experiment [1] (1% CSL+xylose) and in experiment [2] (1% CSL+glucose) were 27.90 g/L and 41.79 g/L, respectively. Also, the results for the Ethanol yield in experiment [1] (1% CSL+xylose) and in experiment [2] (1% CSL+glucose) were 0.287 grams of ethanol/grams of added sugar and 0.430 grams of ethanol/grams of added sugar, respectively. The “Initial Growth (OD @ 24 h) OD” value in experiment [1] (1% CSL+xylose) is 1.76 OD; in experiment [2] (1% CSL+glucose), 2.86 OD. The “Maximum Cell Density OD” value in experiment [1] (1% CSL+xylose) was 2.45 OD; in experiment [2] (1% CSL+glucose) it was 3.79 OD. For the same molecule, the “Maximum Cell Density Time” value in experiment [1] (1% CSL+xylose) worked out at 72 h. Further, the “Volumetric Productivity Average” value in experiment [1] (1% CSL+xylose) is listed as 0.291 grams ethanol/(liter)(hour); in experiment [2] (1% CSL+glucose), 0.580 grams ethanol/(liter)(hour). The “Volumetric Productivity Maximum” value in experiment [1] (1% CSL+xylose) is listed as 0.304 grams ethanol/(liter)(hour); in experiment [2] (1% CSL+glucose), 0.759 grams ethanol/(liter)(hour). The activity at 2000 µg/mL in experiment [1] (setting [3]) worked out at 86.3%; in experiment [1] (setting [4]) it was 92.7%; in experiment [1] (setting [5]), 97.2%; in experiment [1] (setting [6]) it was 92.7%; in experiment [1] (setting [7]) it was 82.4%; in experiment [2] (setting [8]) it was 107%. Besides, the activity at 2000 µg/mL came out at 113% in experiment [2] (setting [9]), 141% in experiment [2] (setting [10]), 151% in experiment [2] (setting [11]) and 148% in experiment [2] (setting [12]).
On to `O=C(O)CCC(=O)O` [Succinate, succinate], for which, in experiment [1] (1% CSL+xylose), the “Ethanol Production Maximum” value is 35.00 g/L, the “Ethanol Production Maximum % Control” value was found to be 116.35%, the Ethanol yield is given as 0.360 grams of ethanol/grams of added sugar and the “Initial Growth (OD @ 24 h) % Control” value is on record as 103.40%. In experiment [1] (1% CSL+xylose), the “Initial Growth (OD @ 24 h) OD” value is recorded as 2.11 OD, the “Maximum Cell Density % Control” value amounted to 124.13%, the “Maximum Cell Density OD” value was determined as 3.12 OD and the “Maximum Cell Density Time” value is recorded as 96 h. In addition, in experiment [1] (1% CSL+xylose), the Time to completion is reported as greater than 96 h, the “Volumetric Productivity Average” value is reported as 0.365 grams ethanol/(liter)(hour), the “Volumetric Productivity Average % Control” value is given as 116.35% and the “Volumetric Productivity Maximum” value was 0.400 grams ethanol/(liter)(hour). In addition, the “Volumetric Productivity Maximum % Control” value in experiment [1] (1% CSL+xylose) is reported as 108.536%. In addition, in experiment [2] (1% CSL+glucose), the “Ethanol Production Maximum” value is recorded as 30.13 g/L, the “Ethanol Production Maximum % Control” value came to 81.46%, the Ethanol yield is 0.310 grams of ethanol/grams of added sugar and the “Initial Growth (OD @ 24 h) % Control” value was 100.47%. Moreover, in experiment [2] (1% CSL+glucose), the “Initial Growth (OD @ 24 h) OD” value came out at 2.69 OD, the “Maximum Cell Density % Control” value was determined as 98.99%, the “Maximum Cell Density OD” value is listed as 2.66 OD and the “Maximum Cell Density Time” value was 72 h. In experiment [2] (1% CSL+glucose), the Time to completion was 96 h, the “Volumetric Productivity Average” value is listed as 0.314 grams ethanol/(liter)(hour), the “Volumetric Productivity Average % Control” value is recorded as 81.46% and the “Volumetric Productivity Maximum” value is recorded as 0.511 grams ethanol/(liter)(hour). Moreover, the “Volumetric Productivity Maximum % Control” value in experiment [2] (1% CSL+glucose) came to 99.45%.

The values above are taken from patent US20020137154A1, “Methods for improving cell growth and alcohol production during fermentation” (priority 2000, published 2002).
